Laboratory results reported in ChEMBL document CHEMBL1201862, “PubChem BioAssay data set” (2004).
“And” between values parts separate entries of the source, which are not always exact repeats. Equal entries are not always repeated.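 Interpolation was linear, between the two tested concentrations surrounding the appropriate level; five concentrations were tested over 48 hours in 96-well plates. Here, GI50 denotes the concentration required for 50% inhibition of growth.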 The source made the active and inactive calls. Cut-off read from the data, not from the text of the source: active = GI50 up to about 1.1 µM and inactive = higher. *1 amine or outer side, *2 acyl side, *3 side chain or, on linkers, in order; H or OH if unused. Where a SMILES comes first, the peptide text is derived from it. Bridges are numbered along the chain shown (N, C = ends). Roman numbers before positions name the chains, in order. [ ]: non-standard residue; d: D form. Actinocin(1to9) = Cc1c2oc3c(C)ccc(C(=O)[*:2])c3nc-2c(C(=O)[*:1])c(N)c1=O; NMeY = CN[CH](Cc1ccc(O)cc1)C(=O)O; Sar = CNCC(=O)O

What was measured:
Test in all cases: NCI tumour cell line growth inhibition, 48 h
TK-10 = tested on: TK-10
SF-539 = tested on: SF-539
LOX IMVI = tested on: LOX IMVI
SW-620 = tested on: SW-620
NCI-H226 = tested on: NCI-H226
HCC 2998 = tested on: HCC 2998
SNB-75 = tested on: SNB-75
HCT-116 = tested on: HCT-116
MDA-N = tested on: MDA-N
NCI-H522 = tested on: NCI-H522
OVCAR-4 = tested on: OVCAR-4
T47D = tested on: T47D
Malme-3M = tested on: Malme-3M
SF-268 = tested on: SF-268
IGROV-1 = tested on: IGROV-1
MCF7 = tested on: MCF7
OVCAR-8 = tested on: OVCAR-8
PC-3 = tested on: PC-3
HCT-15 = tested on: HCT-15
SK-OV-3 = tested on: SK-OV-3
UO-31 = tested on: UO-31
ACHN = tested on: ACHN
NCI-H460 = tested on: NCI-H460
KM12 = tested on: KM12
NCI/ADR-RES = tested on: NCI/ADR-RES
UACC-257 = tested on: UACC-257
NCI-H23 = tested on: NCI-H23
OVCAR-3 = tested on: OVCAR-3
SN12C = tested on: SN12C
BT-549 = tested on: BT-549
SNB-19 = tested on: SNB-19
RPMI-8226 = tested on: RPMI-8226
A498 = tested on: A498
MDA-MB-435 = tested on: MDA-MB-435
SK-MEL-5 = tested on: SK-MEL-5
SK-MEL-28 = tested on: SK-MEL-28
MDA-MB-231 = tested on: MDA-MB-231
CCRF-CEM = tested on: CCRF-CEM
M14 = tested on: M14
COLO 205 = tested on: COLO 205
CAKI-1 = tested on: CAKI-1
OVCAR-5 = tested on: OVCAR-5
SF-295 = tested on: SF-295
SK-MEL-2 = tested on: SK-MEL-2
RXF 393 = tested on: RXF 393
A549 = tested on: A549
HOP-62 = tested on: HOP-62
786-0 = tested on: 786-0
U-251 = tested on: U-251
DU-145 = tested on: DU-145
UACC-62 = tested on: UACC-62

Q: What does the source list for `N#Cc1c(-c2ccccc2)c(/C=N/c2ccc(Cl)cc2)c(=O)n2c1[nH]c1ccccc12`?
A: GI50 (TK-10): > 100 µM (inactive); GI50 (SF-539): > 100 µM (inactive); GI50 (LOX IMVI): > 100 µM (inactive); GI50 (SW-620): > 100 µM (inactive); GI50 (NCI-H226): > 100 µM (inactive); GI50 (HCC 2998): > 100 µM (inactive); GI50 (SNB-75): > 100 µM (inactive); GI50 (HCT-116): 0.424 µM (active); GI50 (MDA-N): 20.4 µM (inactive); GI50 (NCI-H522): 61.2 µM (inactive); GI50 (OVCAR-4): > 100 µM (inactive); GI50 (T47D): > 100 µM (inactive); GI50 (Malme-3M): > 100 µM (inactive); GI50 (SF-268): > 100 µM (inactive); GI50 (IGROV-1): > 100 µM (inactive); GI50 (MCF7): > 100 µM (inactive); GI50 (OVCAR-8): > 100 µM (inactive); GI50 (PC-3): > 100 µM (inactive); GI50 (HCT-15): > 100 µM; GI50 (SK-OV-3): > 100 µM (inactive); GI50 (UO-31): 34.4 µM (inactive); GI50 (ACHN): 65.2 µM (inactive); GI50 (NCI-H460): > 100 µM (inactive); GI50 (KM12): 54.1 µM (inactive); GI50 (NCI/ADR-RES): > 100 µM (inactive); GI50 (UACC-257): > 100 µM (inactive); GI50 (NCI-H23): > 100 µM (inactive); GI50 (OVCAR-3): 80.9 µM (inactive); GI50 (SN12C): 97.7 µM (inactive); GI50 (BT-549): > 100 µM (inactive); GI50 (SNB-19): > 100 µM (inactive); GI50 (RPMI-8226): 4.43 µM (inactive); GI50 (A498): > 100 µM (inactive); GI50 (MDA-MB-435): > 100 µM (inactive); GI50 (SK-MEL-5): > 100 µM (inactive); GI50 (SK-MEL-28): > 100 µM (inactive); GI50 (MDA-MB-231): > 100 µM (inactive); GI50 (CCRF-CEM): 21.4 µM (inactive); GI50 (M14): > 100 µM (inactive); GI50 (COLO 205): 83 µM (inactive); GI50 (CAKI-1): 20.1 µM (inactive); GI50 (OVCAR-5): > 100 µM (inactive); GI50 (SF-295): 50.5 µM (inactive); GI50 (SK-MEL-2): > 100 µM (inactive); GI50 (RXF 393): > 100 µM (inactive); GI50 (A549): 83.9 µM (inactive); GI50 (HOP-62): 73.5 µM (inactive); GI50 (786-0): > 100 µM (inactive); GI50 (U-251): > 100 µM (inactive)

Q: What does the source list for `COc1ccc(CC2C(=O)OC(C)C(NC(=O)c3c4nc5c(C(=O)NC6C(=O)NC(C(C)C)C(=O)N7CCCC7C(=O)N(C)CC(=O)N(C)C(Cc7ccc(OC)cc7)C(=O)OC6C)ccc(C)c5oc-4c(C)c(=O)c3N)C(=O)NC(C(C)C)C(=O)N3CCCC3C(=O)N(C)CC(=O)N2C)cc1` (stereo not drawn) (I: TVP[Sar][NMeY](Me) / II: TVP[Sar][NMeY](Me); ester I:1-I:C, II:1-II:C; linker I:N-II:N via Actinocin(1to9); configuration not given here)?
A: GI50 (SF-539): < 10 nM (active) and 7.08 nM (active); GI50 (SW-620): < 10 nM (active) and 13.6 nM (active); GI50 (NCI-H226): < 10 nM (active) and 14.9 nM (active); GI50 (DU-145): 0.0121 µM (active); GI50 (HCC 2998): < 10 nM (active) and 8.04 nM (active); GI50 (SNB-75): 0.00764 µM (active); GI50 (MDA-N): 0.00811 µM (active); GI50 (OVCAR-4): < 0.01 µM (active); GI50 (T47D): 0.0094 µM (active); GI50 (Malme-3M): < 10 nM (active) and 10.6 nM (active); GI50 (OVCAR-8): 0.00859 µM (active); GI50 (PC-3): < 10 nM (active) and 10 nM (active); GI50 (ACHN): 0.0102 µM (active); GI50 (KM12): 0.00516 µM (active); GI50 (UACC-257): 0.0155 µM (active); GI50 (NCI-H23): 0.0104 µM (active); GI50 (OVCAR-3): < 10 nM (active) and 9.44 nM (active); GI50 (SN12C): 0.0053 µM (active); GI50 (BT-549): 0.0208 µM (active); GI50 (SNB-19): 0.00637 µM (active); GI50 (RPMI-8226): 0.0121 µM (active); GI50 (A498): < 10 nM (active) and 14.9 nM (active); GI50 (MDA-MB-435): 0.00923 µM (active); GI50 (SK-MEL-5): 0.0119 µM (active); GI50 (SK-MEL-28): 0.00964 µM (active); GI50 (UACC-62): 0.0107 µM (active); GI50 (SF-295): 0.0199 µM (active); GI50 (A549): 0.00527 µM (active); GI50 (HOP-62): 0.00953 µM (active)
